According to US10980830B2, “Systems and methods for treating skin conditions with magnesium ion compositions” (priority 2017, dated 2021):
Where two headings read alike, the source gives them in different places.

How the values were obtained:
[1] = test system: plaque psoriasis
Description: In another example, a person with plaque psoriasis on the extensor surface of their right knee for over 15 years was started on magnesium treatment. Prior treatment with topical hydrocortisone was stopped two weeks prior. Applications using Johnson+Johnson Large Sterile Waterproof Pads with QUILTVENT™ Technology. 1.8 cc solution of 20% magnesium sulfate solution (APP Fresenius Kabi Lake Zurich, Ill. NDC63323-064-10, 50% solution diluted with sterile water) was applied every third day for eight hour durations. […] After the 10 applications of the 20% magnesium sulfate solution, the strength of the solution was increased to 40% for the next ten applications and to 50% for the following 10 applications.
A trial using a 50% solution of magnesium chloride was made by dissolving the magnesium flakes with distilled water (Hinkley Springs) and applied to the Johnson+Johnson Large Sterile Waterproof Pads with QUILTVENT™. Applications were initially for eight hours every third day. […] Following the twentieth application the applications were increased to twelve hour duration with frequency increased to every other day. […] Applications were stopped to determine if total remission been achieved. […] Treatment was continued for three additional treatments.

[2] = test system: sacroiliac (SI) joints pain and stiffness
Description: In another example, a trial of transdermal magnesium ions delivered via iontophoresis in an effort to relieve pain, tenderness, and stiffness localized to sacroiliac (SI) joints. A patient with symptoms including exacerbation of chronic low back pain associated with pain, stiffness, and tenderness of both sacroiliac joints with pain radiating to the right iliac crest over a five week period. Symptoms were moderate to severe enough to make standing erect difficult at times and walking was slow and deliberate.
An iontophoresis pad with 120 mg of magnesium chloride diluted in 4 cc of distilled water was placed over the right sacroiliac joint for 80 minutes for delivery of 40 mA minutes with a delivery setting of 0.5 mA/minute at 8:00 pm.
A second identical dose was delivered with the same iontophoresis electrodes in place. […] Ten minutes following delivery of the first dose to the […] SI joint a second identical iontophoresis dose was delivered with the same electrodes in place.

[3] = test system: plaque psoriasis; remark: listed apart in the source
Description: Johnson+Johnson Large Sterile Waterproof Pads with QUILTVENT™ Technology were obtained. These are similar to large waterproof bandaids measuring 2.875 inches×4 inches with a central pad that measured 1.85 inches×3 inches.

[4] = test system: pain and stiffness of the lower back
Procedure: In an effort to determine if passive diffusion of magnesium ions applied over a larger surface area under a hydrocolloid dressing could affect the pain and stiffness of the lower back approximately 0.8 mL of 50% magnesium chloride solution was sprayed on a 4″×4″ hydrocolloid patch (DuoDERM™ Extra Thin CGF Dressing, by ConvaTec) and the moist patch was placed over the lumbar spine where the pain was now localized. This was kept in place during an 8 hour period. […] A third application of a pre-moistened Duoderm dressing, this time with approximately 0.5 mL of 40% magnesium chloride solution, sprayed onto the surface prior to application to the lumbar spine area and worn for 48 hours continuously.

[5] = test system: chronic lower back pain
Description: In an effort to determine a threshold for therapeutic response the patient was started on gradually increasing concentrations of magnesium chloride placed on a 4 in.×4 in. hydrocolloid dressing (DupDERM™ Extra Thin CGF, by Convatec). Dosages were always approximately 1 cc sprayed onto surface of the dressing using a 20% solution of Magnesium Chloride (Mylan, NDC 674-134-50) diluted to strengths of 2%, 5%, 10% 15%, and undiluted 20%. Sterile water was used as the diluent (Hospira NDC 0409-4887-17). Dressings were kept in place for 8 hours. This method of application continued with daily graduation in the strength of solution applied. […] Using the same method of application, the dosages were increased to 30%, 40% and 50% solutions now made with magnesium flakes dissolved in distilled water.

[6] = test system: adhesive capsulitis; conditions: 1.8 cc of 58% wt/vol on waterproof pad, normal skin, kept in place 24 hours
Description: The same Johnson+Johnson waterproof pad was applied to normal skin over my right shoulder affected with an exacerbation of adhesive capsulitis.

[7] = test system: recurrent plaque psoriasis
[8] = test system: adhesive capsulitis; conditions: for pain with active range of motion of the shoulder: after 16 hours of continued use
Procedure: A second attempt using transdermal magnesium treatment to affect the pain and inflammation associated with adhesive capsulitis was performed. A 1.3 cc of 50% magnesium sulfate solution (APP Fresenius Kabi Lake Zurich, Ill. NDC63323-064-10) was placed on the positive dispersal pad in an iontophoresis device (iontoPatch 80 manufactured by Travini Medical). The NaCl solution supplied with the device was placed on the negative patch. The positive patch was placed over the tender area on the lateral shoulder and kept in place for 10 hours. It was applied at 8:00 pm and removed the next morning before showering at 6:00 am. […] After showering a second replacement patch prepared in the same manner was placed at 6:15 am, 15 minutes after the first iontoPatch was removed.
The positive side of the patch now placed over a tender area on the anterior shoulder. The second patch application was kept in place for a total of 13.5 hours.

[9] = 50% solution, after 15 applications
[10] = 50% solution, after 20 applications plus ten 12 h applications every other day
[11] = 50% solution, two weeks after applications were stopped
[12] = 1.8 cc of 20% solution, 8 h every third day, following 7 applications
[13] = after increasing strength to 40% and 50% (10 applications each)

For [Cl-].[Cl-].[Mg+2] [magnesium chloride], the “fine scaliness and inflammation, early response” value ([1]; 50% solution, 8 h every third day, within days of starting) was “immediate improvement”, the dermal hypertrophy [1, 9] was “improvement” and the fine scales [1, 9] was “elimination”. The improvement in inflammation [1, 9] was 90-95%, the dermal hypertrophy [1, 10] was “resolved” and the fine scaliness [1, 10] was “resolved”. For the same compound, the “finding under double polarized light head set apparatus” value [1, 11] was “small erythematous islands were visualized”, the skin appearance [1, 11] was “appeared normal” and the “improvement in pain and stiffness of the right SI joint” value ([2]; 120 mg in 4 cc water, iontophoresis 40 mA minutes, five hours after the first dose) was “approximately 50%”. For the same compound, the “duration of the improvement” value ([2]; after two iontophoresis doses on each SI joint) was “lasted throughout the next day”, the “improvement in pain and stiffness of the right SI joint” value ([2]; two iontophoresis doses of 120 mg in 4 cc, five hours after completion) was 80% and the “reduction in pain and stiffness of the left SI joint” value ([2]; two iontophoresis doses of 120 mg in 4 cc, two hours after treatments ended) was ~90%. For the same compound, the “skin finding over the previous psoriasis plaque” value ([3]; 58% wt/vol solution kept in place for 24 hour periods, resolved with days) was “small 2-4 mm painless flat scabs developed”, the “time until erythema and scales of the plaque started to improve” value ([3]; 58% wt/vol solution on occlusive dressing, following the first application) was ≤ 24 h and the “remission status of the psoriasis plaque” value ([3]; 58% wt/vol solution, twelve applications, by the start of week four) was “complete remission”. The “duration of complete remission of the psoriatic lesion” value ([3]; after pads, prophylactic daily 50% wt/vol spray into the fourth month) was “continued into the twelfth month”, the “pain and stiffness in the lower back” value ([4]; 50% solution on hydrocolloid dressing for a total of 9.5 hours) was “complete relief” and the “skin at the application area after the first patch” value ([4]; 50% solution on hydrocolloid patch, after removal of the first patch) was “slightly hyperemic”. For the same compound, the “sensation on application of the second patch” value ([4]; 50% solution on hydrocolloid patch, second application to the same area) was “transient burning sensation”, the “improvement in pain and stiffness of the lower back” value ([4]; about 0.8 mL of 50% solution on 4x4 in. hydrocolloid patch, 8 hour period) was 80% and the “duration of complete relief” value ([4]; after 9.5 hours of 50% solution on hydrocolloid dressing) was 48 h. For the same compound, the “severity of recurring discomfort and stiffness relative to the original pain and stiffness” value ([4]; on the third day after the 50% solution patches) was 20%, the “discomfort and stiffness of the lower back” value ([4]; third dressing, about 0.5 mL of 40% solution, after eight hours) was “Resolution” and the “improvement in pain and stiffness” value ([5]; 30%, 40% and 50% solutions on hydrocolloid dressing, 8 hours) was “incremental therapeutic benefit”. For the same compound, the “greatest benefit estimated by the patient” value ([5]; 50% solution on hydrocolloid dressing, after the 8 hour application) was “over 70%”, the “improvement in pain or stiffness” value ([5]; about 1 cc of 2% or 5% solution on hydrocolloid dressing, 8 hours) was “no therapeutic improvement” and the “improvement in pain and stiffness” value ([5]; about 1 cc of 10% solution on hydrocolloid dressing, after 8 hours) was 10-20%. For the same compound, the “improvement in pain and stiffness, estimate of the patient” value ([5]; about 1 cc of 15% and 20% solution on hydrocolloid dressing, 8 hours) was 20-40% and the “pain associated with adhesive capsulitis” value [6] was “no improvement”.

For O=S(=O)([O-])[O-].[Mg+2] [magnesium sulfate], the itching [1, 12] was “almost total relief”, the reduction in scaling [1, 12] was 50% and the course of improvement ([1]; 20%, then 40% and 50% solution) was “plateaued following the first 10-12 applications”. The scaling between applications [1, 13] was “persistent scaling”, the “thickness of persisting dermal hypertrophy” value [1, 13] was “approximately 3 mm” and the “resolution of scaliness and erythema” value ([7]; 1 cc of 1% solution intra-dermal once daily for four days, not covered, day 14 following the injections) was 80%. For the same compound, the “inflammatory process and erythema” value ([7]; 1 cc of 1% solution intra-dermal once daily for four days, not covered, over the next few days) was “reduction”, the “remission status of the recurrent 1 cm plaque” value ([7]; after 1% injections plus iontophoresis of 1.5 cc 50% solution on days 16 and 18, by day 28) was “complete remission” and the “effect on a small area of recurrent plaque psoriasis” value ([7]; intra-dermal injections of 1% solution) was “effective”. For the same compound, the “improvement in pain with active range of motion of the shoulder” value ([8]; 1.3 cc of 50% solution, iontophoresis, after 10 hours) was 40%, the “active range of motion, affected right versus unaffected left shoulder” value ([8]; 50% solution, iontophoresis, after 16 hours) was “no difference” and the “pain with active range of motion of the shoulder” value ([8]; 50% solution, iontophoresis) was “no pain”. The “pain with active range of motion of the shoulder” value ([8]; 50% solution, iontophoresis, listed as magnesium) was “complete relief”, the “reduction in pain with active range of motion of the shoulder” value ([8]; 50% solution, iontophoresis, patches worn for a total of 12 hours) was 80% and the “duration of the beneficial effect” value ([8]; after two iontophoresis patches with 50% solution) was “no further treatment was required over the next 10 months”.
